In US7320679B2, “Therapeutic use of growth factor, and delivery device, especially for the treatment of intimal hyperplasia” (Ark Therapeutics, Ltd., priority 1996, dated 2008):
Where “and” joins values, the source holds several entries; their conditions need not be identical. Equal values may be shown once. Entries after “also recorded” stand apart in the source; their conditions may differ. Read-outs that look alike come from different tables or passages of the source. One block for each molecule: values may come before it.

Key:
Format in all cases: cell-based, human
[1] = tested on: cPLA2; assay: cPLA2 mobility shift assay in HUVEC; parameters: effect of PD98059 on VEGF-stimulated increase in slow-migrating cPLA2: dose or concentration left out as unconfirmed
Description: (§1) Cell Culture: HUVECs were obtained either from Clonetics and cultured in the manufacturer's own medium supplemented with 2% FBS, or were grown from fresh umbilical cords by collagenase digestion and cultured on 1% gelatin-coated plates in medium 199 supplemented with 20% FCS and endothelial cell growth supplement (Wheeler-Jones et al, Biochem. J. (1996) 315:407-416). For experimental purposes, primary cultures of HUVEC were dispersed by treatment with 0.05% trypsin/0.02% EDTA for 5 min at 37° C. and then replated in either 90 mm, 60 mm or 35 mm plastic dishes, or onto 24-well plates. Cultures were maintained in a humidified atmosphere containing 5% CO2 and […] at 37° C. and used after 6-8 days or when the cells had formed a confluent monolayer. […] The PGI2 content of cell supernatants was quantified by radioimmunoassay of 6-keto-PGF1a, the stable breakdown product of PGI2 as previously described (Wheeler-Jones et al, supra). Arachidonic Acid Release: Arachidonic acid release was determined essentially as described (Domin and Rozengurt, J. Biol. Chem. (1993) 268:8927-8934.). Confluent HUVEC cultures were incubated for 24 h with [5,6,8,9,11,12,14,15-^3H]arachidonic acid (1 mCi/ml, 211 Ci/mmol). […] After treatment, the medium was removed, centrifuged in a microcentrifuge at 16,000×g for 5 min, and the radioactivity in the supernatant was determined by counting in a scintillation counter. Western Blotting Procedures: Treatment of quiescent cultures of cells with factors, and cell lysis were performed as described above and in the Results and Figure Legends. After SDS-PAGE, proteins were transferred to Immobilon membranes (Millipore Inc.). For MAP kinase assays, membranes were blocked using 5% non-fat dried milk in PBS, pH 7.2, and incubated for 3-5 h in PBS/0.05% Tween-20 containing primary antibody (1 mg/ml) as indicated. For immunoblots with antibody to cPLA2, membranes were blocked for 3 h in TBST50 mM Tris/HCl, 150 mM NaCl, 0.02% (v/v) Tween 20 pH 7.4 (TBST) containing 0.2% (w/v) 1-block (Tropix), then incubated with primary antiserum in TBST. Membranes were then washed six times (10 min each wash) in TBST and incubated for 1 hour in TBST containing HRP-conjugated secondary antibody. Immunoreactive bands were visualized by chemiluminescence using HRP-conjugated anti-mouse or anti-rabbit IgG and ECL™ reagent according to the manufacturers instructions. MAP Kinase Assay: Cells were treated with factors as indicated, washed rapidly twice with ice-cold PBS and immediately extracted by the addition of […] boiling 2×SDS-PAGE sample buffer. Cell extracts were collected by scraping, heated to 95° C. for 10 min and run on 12.5% acrylamide SDS-PAGE gels. Following transfer to Immobilon membranes, proteins were immunoblotted with an antibody which specifically recognizes p42 and p44 MAP kinases (Erk-1 and Erk-2) activated by phosphorylation at Tyr204 (Payne e al, EMBO J. (1991) 10:885-892.). cPLA2 Mobility Shift Assay: Confluent quiescent HUVECs in 60 mm dishes were washed twice in serum-free medium 199 (pH 7.4) and subsequently exposed, for the times indicated, to medium containing factors as detailed in the Figure legends. Cell lysates were prepared as previously described (Wheeler-Jones et al, supra). Proteins were separated by SDS-PAGE (10% acrylamide) and after transfer to membranes were immunoblotted with polyclonal anti-serum to cPLA2 (BorschHaubold et al, J. Biol. Chem. (1995) 270: 25885-25892; and Kramer et al, J. Biol. Chem. (1996) 271:27723-27729). Assay of vWF Secretion: vWF secretion was measured by ELISA (Wheeler-Jones et al, supra) in samples of medium obtained from confluent cultures of HUVECs which had been treated with factors, as indicated. Plates were coated with the anti-vWF mAb CLBRAg35, and the lower detection limit of the assay was approximately 1.0 mU/ml. Materials: Recombinant VEGF was obtained either from UBI or from R & D Systems. […]

[2] = tested on: arachidonic acid release in HUVEC; assay: Arachidonic acid release from prelabelled HUVEC
Description: as §1

[3] = tested on: PGI2 synthesis in HUVEC; assay: PGI2 assay (radioimmunoassay of 6-keto-PGF1a) in HUVEC; details: for mean fold increase in 6-keto PGF1a above control unstimulated level: 60 min, 60 ng/ml PIGF, 1 U/ml thrombin
Description: as §1

[4] = tested on: vWF secretion by HUVECs; assay: vWF secretion by ELISA in HUVEC; parameters: effect of PD98059 on VEGF-induced vWF secretion: dose or concentration left out as unconfirmed
Description: as §1

[5] = tested on: p42/p44 MAP kinases; assay: MAP kinase assay (phospho-p42/p44 immunoblot) in HUVEC; parameters: inhibition of VEGF-stimulated MAP kinase activity: dose or concentration left out as unconfirmed
Description: as §1

[6] = tested on: 205 kD protein corresponding to VEGF receptor; assay: Anti-phosphotyrosine immunoprecipitation/immunoblot in HUVEC; details: HUVEC
Description: In some experiments, cells were pretreated for 1 h with 100 μM L-NAME and subsequently treated either with or without. […] The medium was removed and cells were rapidly lysed at 4° C. by addition of 10 mM Tris/HCl (pH 7.6), 5 mM EDTA, 50 mM NaCl, 30 mM sodium pyrophosphate, 50 mM NaF, 0.1 mM Na3VO4, 1 mM PMSF and 1% Triton X-100 (lysis buffer). Lysates were clarified by centrifugation at 15000×g for 10 min, and immunoprecipitations were performed by incubating clarified lysates with PY20 anti-phosphotyrosine mAb for 2 h at […] Immunoprecipitates were collected by incubating lysates for a further 1 hour with protein A-agarose. Immunoprecipitates were washed three times with lysis buffer and proteins were then extracted with 2×SDS-PAGE sample buffer. After SDS-PAGE, immunoprecipitated proteins were transferred to membranes and then immunoblotted with PY20 mAb.

[7] = tested on: HUVECs; assay: Migration of HUVECs in chemotaxis chambers; details: PIGF 5-60 ng/ml
[8] = tested on: NO production in HUVEC; assay: Nitrite (NO) production in HUVEC, capillary detection method
Description: Nitrite production was measured using capillary detection method (Leone et al, in Methods in Nitric Oxide Research, Feelisch and Stanler, eds. John Wiley & Sons, New York (1996) 499-508).

Molecule: thrombin [reference compound]
cPLA2 mobility shift (in words) [1]: striking shift
mean increase in release of labelled arachidonic acid above basal unstimulated level ([2]; four independent experiments): 3.4 fold
mean fold increase in 6-keto PGF1a above control unstimulated level ([3]; 25 ng/ml VEGF): 4.4 fold

concentration reducing MAP kinase activity to control, unstimulated level [5]: 10 to 20 mM
inhibition of VEGF-stimulated MAP kinase activity [5]: greater than 50%
Molecule: COc1cccc(-c2cc(=O)c3ccccc3o2)c1N [PD98059, reference compound]
effect of PD98059 on VEGF-induced vWF secretion [4]: neither prevented nor significantly reduced; also recorded: no effect
effect of PD98059 on basal or thrombin-stimulated vWF secretion [4]: no effect
effect of PD98059 on VEGF-stimulated increase in slow-migrating cPLA2 [1]: completely blocked; also recorded: complete inhibition
effect of PD98059 on VEGF stimulation of p42/p44 MAP kinases ([5]; 30 min pretreatment): completely inhibited; also recorded: complete inhibition
concentration of maximum inhibitory effect on stimulated PGI2 production [3]: 10 µM
effect of PD98059 on VEGF-induced PGI2 production ([3]; 30 mM PD98059 30 min pretreatment, 25 ng/ml VEGF 60 min): completely inhibited; also recorded: complete inhibition
effect of PD98059 on thrombin-induced PGI2 production ([3]; 30 mM PD98059 30 min pretreatment, 1 U/ml thrombin 60 min): completely inhibited
inhibitor concentration at which PGI2 production fell below control values ([3]; VEGF-treated cells): greater than 10 mM
PGI2 production in control, unstimulated cells ([3]; basal): abolished

Molecule: VEGF
vWF secretion (in words) [4]: comparable to, though consistently weaker than, that of thrombin
vWF level above control cells ([4]; 25 ng/ml VEGF, 3 h): 2.5 fold
concentration of maximum effect on vWF secretion ([4]; highest concentration tested): 25 ng/mL
cPLA2 mobility shift (in words) [1]: marked increase in the immunoreactivity of the slow-migrating form
concentration giving noticeable increase in slow-migrating cPLA2 [1]: 2.5 ng/mL
concentration of maximum increase in slow-migrating cPLA2 [1]: 5 to 10 ng/mL and 5 ng/mL
time at which cPLA2 shift to slow-migrating form was detectable ([1]; VEGF 25 ng/ml): 2 min
time for which cPLA2 shift was sustained ([1]; VEGF 25 ng/ml): up to 60 min
time of maximum cPLA2 shift ([1]; VEGF 25 ng/ml): 15 min
concentration range inducing tyrosine phosphorylation of 205 kDa protein [6]: 1 to 25 ng/mL
concentration of maximum arachidonic acid release [2]: 10 to 20 ng/mL
half-maximum effect on arachidonic acid release [2]: 2.5 to 5 ng/mL
mean increase in release of labelled arachidonic acid above basal unstimulated level [2]: 1.6 fold
time at which arachidonic acid release was evident [2]: 10 min
time of half-maximum arachidonic acid mobilization [2]: 10 min
time of maximum arachidonic acid release [2]: 30 min
chemotaxis of HUVECs [7]: concentration-dependent increase in chemotaxis
concentration of maximum MAP kinase activation ([5]; 15 min exposure): 10 ng/mL and 5 to 10 ng/mL
concentration up to which maximum MAP kinase effect was sustained ([5]; 15 min exposure): up to 50 ng/ml
time for which NO production was sustained [8]: up to 2 hours
half-maximal effect on NO production ([8]; HUVEC, nitrite levels): 5 ng/mL
nitrite production level ([8]; VEGF 2.5 ng/ml, 10 minutes (first of two levels)): ~19 µM
nitrite production level ([8]; VEGF 25 ng/ml for times up to 2 h): 1.8 to 2 µM
nitrite production level ([8]; VEGF 25 ng/ml, 10 minutes (second of two levels)): ~2.1 µM
earliest time effect on NO production seen ([8]; after addition of VEGF): 30 s
time of maximum NO production ([8]; after addition of VEGF): 5 min
time for which PGI2 production was sustained [3]: up to 2 h
time up to which PGI2 production continued to increase [3]: up to 60 min
PGI2 synthesis at 25 ng/ml ([3]; 25 ng/ml VEGF): small decline
mean fold increase in 6-keto PGF1a above control unstimulated level ([3]; 25 ng/ml VEGF): 2.0 fold and 2 fold
concentration at which increase in PGI2 synthesis was detectable ([3]; 60 min incubation): 5 ng/mL
concentration of maximum PGI2 synthesis ([3]; 60 min incubation): 15 ng/mL
half-maximal PGI2 synthesis ([3]; 60 min incubation): 10 ng/mL

B1: PIGF: VEGF-related factor, a specific ligand for the Flt-1 VEGF receptor; recombinant (protein)
chain: AVPPQQWALSAGNGSSEVEVVPFQEVWGRSYCRALERLVDVVSEYPSEVEHMFSPSCVSLLRCTGCCGDENLHCVPVETANVTMQLLKIRSGDRPSYVELTFSQHVRCECRPLREKMKPERCGDAVPRR
vWF secretion (in words) [4]: no detectable stimulation
cPLA2 mobility shift (in words) [1]: no detectable shift
arachidonic acid release (in words) ([2]; prelabelled HUVECs): no detectable significant increase
chemotaxis of HUVECs [7]: no detectable increase
MAP kinase activity (in words) ([5]; PIGF 1-60 ng/ml): little, if any, detectable increase; also recorded: little effect
mean fold increase in 6-keto PGF1a above control unstimulated level ([3]; 25 ng/ml VEGF): 1.3 fold
